Assay results: the PolyMetriX glass transition set
± gives the standard deviation of the reports.

Row | glass transition temperature | Structure (SMILES)
1 | 104.00 °C | *CCCCCCCCCN1C(=O)c2ccc(-c3ccc(-c4ccc5c(c4)C(=O)N(*)C5=O)cc3)cc2C1=O (repeat unit)
2 | 269.00 °C | *c1ccc(Cc2ccc(N3C(=O)c4ccc(Oc5ccc(Oc6ccc7c(c6)C(=O)N(*)C7=O)cc5)cc4C3=O)c(OC)c2)cc1OC (repeat unit)
3 | 52.00 °C | *C(=O)OCCOCCOCCOCCOC(=O)c1ccc(N2C(=O)c3ccc(*)cc3C2=O)cc1 (repeat unit)
4 | 291.00 °C | *C(=O)Nc1nc(NC(=O)c2ccc3c(c2)C(=O)N(c2ccc(Oc4cccc5c(N6C(=O)c7ccc(*)cc7C6=O)cccc45)cc2)C3=O)nc(-c2ccccc2)n1 (repeat unit)
5 | -38.00 °C | *CCOCCOCCOCCOC(=O)CCSCCC(=O)O* (repeat unit)
6 | 320.00 °C | *CC(O)CN(CC(O)COc1ccc(C(C)(C)c2ccc(O*)cc2)cc1)c1ccc(/C=C/c2ccc([N+](=O)[O-])cc2)cc1 (repeat unit)
7 | 135.00 °C | *CCCC(CC)CCNC(=O)c1ccc(C(=O)N*)cc1 (repeat unit)
8 | 271.00 °C | *c1ccc2oc(C3CCC(c4nc5cc(C(*)(C(F)(F)F)C(F)(F)F)ccc5o4)CC3)nc2c1 (repeat unit)
9 | 220.00 °C | *c1ccc(Oc2ccc(-c3ccc(Oc4ccc(N5C(=O)c6ccc(Oc7ccc(-c8ccc(Oc9ccc%10c(c9)C(=O)N(*)C%10=O)cc8)cc7)cc6C5=O)cc4)cc3)cc2)cc1 (repeat unit)
10 | 225.00 °C | *Oc1ccc(-c2cc(-c3ccccc3)c(-c3ccc(OC(=O)c4ccc(C(*)=O)cc4-c4ccccc4)cc3)c(-c3ccccc3)c2-c2ccccc2)cc1 (repeat unit)
11 | 266.00 °C | *CC1(C)CC(N2C(=O)c3ccc(Oc4ccc5c(c4)C(=O)N(*)C5=O)cc3C2=O)CC(C)(C)C1 (repeat unit)
12 | -18.00 °C | *CC(C)(CO*)COCCOCCOCCOC (repeat unit)
13 | 180.00 °C | *CCCNC(=O)c1ccc(C(=O)N*)cc1 (repeat unit)
14 | 250.00 °C | *C1CCC(CC2CCC(N3C(=O)c4ccc(Oc5ccc6c(c5)C(=O)N(*)C6=O)cc4C3=O)C(C)C2)CC1C (repeat unit)
15 | -3.00 °C | *CCCCCCCCCCOc1ccc(CCc2ccc(O*)cc2C)cc1 (repeat unit)
16 | 230.00 °C | *Oc1ccc(C2(c3ccc(OC(=O)CCC(*)=O)cc3)c3cc(OC)ccc3-c3ccc([N+](=O)[O-])cc32)cc1 (repeat unit)
17 | -36.00 °C | */C=[CH]/[Ge]([*])([c]1ccccc1)[c]1ccccc1 (repeat unit)
18 | 361.00 °C | *c1ccc2c(c1)C(=O)N(c1c(C)cc(-c3cc(C)c(-c4cc(C)c(N5C(=O)c6ccc(C(*)(C(F)(F)F)C(F)(F)F)cc6C5=O)c(C)c4)cc3C)cc1C)C2=O (repeat unit)
19 | 40.00 °C | *CC(*)(C)C(=O)OCCCCCCOc1ccc(C(=O)Oc2ccc(/N=N/c3ccc(C)cc3)c3ccccc23)cc1 (repeat unit)

Row | glass transition temperature | Structure (SMILES)
20 | 207.00 °C | *c1ccc(Oc2ccc(C(C)(C)c3ccc(Oc4ccc(-c5nnc(*)n5-c5ccccc5)cc4)cc3)cc2)cc1 (repeat unit)
21 | 74.00 °C | *OC(=O)C(Cc1ccccc1)NC(=O)CCCCCCCCC(=O)NC(Cc1ccccc1)C(=O)OC1COC2C(*)COC12 (repeat unit)
22 | 43.00 °C | *CCCCCCCCCCCCOC(=O)Nc1ccc(Cc2ccc(NC(=O)O*)cc2)cc1 (repeat unit)
23 | 123.00 °C | *CCCCC(=O)Oc1ccc(-c2ccc(OC(=O)c3ccc4c(c3)C(=O)N(*)C4=O)cc2)cc1 (repeat unit)
24 | 85.00 °C | *CCCCCCCCCCCCCCNC(=O)CCc1ccc(CCC(=O)N*)cc1 (repeat unit)
25 | 136.00 °C | *c1ccc2cc(OC(=O)c3ccc(C(=O)Oc4ccc5cc(-c6nc7ccccc7nc6*)ccc5c4)cc3)ccc2c1 (repeat unit)
26 | 365.00 °C | *Nc1ccc(NC(=O)c2ccc(NC(=O)c3cc(NC(=O)C45CC6CC(CC(C6)C4)C5)cc(C(*)=O)c3)cc2)cc1 (repeat unit)
27 | 281.00 °C | *c1ccc(Oc2ccc(N3C(=O)c4ccc(S(=O)(=O)c5ccc6c(c5)C(=O)N(*)C6=O)cc4C3=O)cc2Br)c(Br)c1 (repeat unit)
28 | 365.00 °C | *Nc1cccc(NC(=O)c2cc(NC(=O)C34CC5CC(CC(C5)C3)C4)cc(C(*)=O)c2)c1 (repeat unit)
29 | -65.00 °C | *O[Si](C)(C)c1ccc([Si](C)(C)O[SiH](*)C)cc1 (repeat unit)
30 | 333.00 °C | *c1ccc(-c2nc3cc(-c4ccc5nc(*)c(-c6ccc7ccccc7c6)nc5c4)ccc3nc2-c2ccc3ccccc3c2)cc1 (repeat unit)
31 | 53.00 °C | *CCCCCCCCCCCOC(=O)c1cc(OCCCCCCCCCCOc2ccc(/N=N/c3ccc(OC)cc3)cc2)cc(C(=O)OCCCCCCCCCCCOc2ccc(-c3ccc(O*)cc3)cc2)c1 (repeat unit)
32 | 232.00 °C | *C(=O)Oc1ccc(-c2ccc(OC(=O)c3ccc4c(c3)C(=O)N(c3ccc(Oc5ccc(N6C(=O)c7ccc(*)cc7C6=O)cc5)cc3)C4=O)cc2)cc1 (repeat unit)
33 | 227.00 °C | */C=C/c1ccc(*)c(OCc2cc(OCCC(C)CCCC(C)C)cc(OCC(CC)CCCC)c2)c1 (repeat unit)
34 | 50.00 °C | *CC(*)C(=O)OCC1(CC)COC(c2ccccc2)OC1 (repeat unit)
35 | 52.00 °C | *CCCCCCCCCCCCCCCCCCNC(=O)NCc1ccc(CNC(=O)N*)cc1 (repeat unit)
36 | 74.00 °C | *CC(*)c1ccc(C(=O)OCCN(CC)CC)cc1 (repeat unit)
37 | 20.00 °C | *O[Si](*)(C)CCCCCCCCCCCOc1ccc(-c2ccc(C(=O)Oc3ccc(C(=O)OC(C)C(=O)OC(C)C(=O)OCC(C)CC)cc3)cc2)cc1 (repeat unit)

Row | Structure (SMILES) | glass transition temperature
38 | *CC(C)S* (repeat unit) [Poly(propylene sulfide) ] | -47 ± 2.7 °C
39 | *CCC(*)(C)C (repeat unit) | -12.00 °C
40 | *CCCCCCCCNC(=O)CCP(C)(=O)CCC(=O)N* (repeat unit) | 52.00 °C
41 | */C=C/c1ccc(*)cc1 (repeat unit) [Poly(p-phenylenevinylene)s] | 137.42 ± 150 °C
42 | *CCCCCCOC(=O)C(CCCCCCP(=O)(OCC)OCC)C(=O)OCCCCCCOc1ccc(-n2on2-c2ccc(O*)cc2)cc1 (repeat unit) | 9.00 °C
43 | *c1ccc(Oc2ccc(P(C)(=O)c3ccc(Oc4ccc(C5(*)OC(=O)c6ccccc65)cc4)cc3)cc2)cc1 (repeat unit) | 263.00 °C
44 | *CC(*)(C#N)C(=O)OCCCCCCC (repeat unit) | 102.00 °C
45 | *CC(*)C#N (repeat unit) [Poly(acrylonitrile)] | 110 ± 12 °C
46 | *CC(*)(C)C(=O)OCCBr (repeat unit) | 52.00 °C
47 | *C1CCCCC1S(*)(=O)=O (repeat unit) | 77.00 °C
48 | *CCCCCCOc1ccc(/C=C2\CC/C(=C\c3ccc(OCCCCCCOP(=O)(O*)OC)c(OC)c3)C2=O)cc1OC (repeat unit) | 74.00 °C
